Literature values, collected in PMC5766731 (Clinical Pharmacokinetics, 2017).

Settings: cited from earlier work

In the case of O=C(O)CNC(=O)c1ncc(-c2cccc(Cl)c2)cc1O [vadadustat], the “pharmacokinetics in CKD patients (stages 3 and 4)” value is listed as “not found to be significantly altered” and the “renal CL mechanisms, share of the radioactive dose” value (healthy subjects) is listed as “approximately 59%”.
